# Reference: patent US9452226B2, “Rodent model of central neuropathic pain caused by dorsal root entry zone avulsion at T13” (priority 2008, dated 2016)
# Entries after “also recorded” stand apart in the source; their conditions may differ.
# Experiments:
# [1] = system: rats having DREZs avulsed at T13/L1; assay: von Frey allodynia test in T13/L1 DREZ avulsion rat model, intrathecal ibudilast (Example 2); assay type: in vivo; conditions: intrathecally daily in corn oil carrier; unilateral (FIG. 2) or bilateral (FIG. 3) DREZ avulsion; vs sham controls receiving corn oil
# Experimental: Rats were anesthetized using isoflurane. Under aseptic condition, the skin was incised in the midline along the posterior thoracolumbar region. The paravertebral muscles were retracted laterally to expose the posterior aspect of the spinal laminae. Laminectomies were performed and the dura mater then incised along the midline to expose the dorsal rootlets 10 of T13 and L1. The dorsal rootlets of T13 and L1 were then avulsed out of the spinal cord 15 on the left side using micronstrumentation 5 (see FIG. 4B). A visual defect 25 in pia and dorsal cord where the rootlets 10 were avulsed can be seen in FIG. 4B. The grey matter 30 of the spinal cord 15 is also shown. Hemostasis was obtained and a layer of gelfoam placed over the dura. The wound was closed in layers. Perioperative antibiotics were administered in prophylaxis against infection. Subject rats were tested for allodynia of the hindpaws with the von Frey hair test, beginning day one post surgery and continuing daily over the subsequent four weeks. Rat animal model was generated similar to above. In one experiment, DREZ avulsion was unilateral (FIG. 2). In one experiment, DREZ avulsion was bilateral (FIG. 3). Ibudilast was delivered intrathecally daily in a corn oil carrier, with sham controls receiving only the corn oil.
# [2] = system: rats with unilateral T13/L1 dorsal root avulsion; assay: von Frey test after unilateral T13/L1 dorsal root avulsion, daily s.c. AV411 (Example 5); assay type: in vivo, rat
# Experimental: The dorsal spinal cord was exposed by laminectomy at the T13/L1 spinal level. The T13 and L1 dorsal roots were each isolated, clamped at the dorsal root entry zone (DREZ) and briskly pulled out of the spinal cord as described above. AV411 was administered to animals avulsed at the T13 and L1 dorsal root entry zones. The compound AV411 was administered to animals subject to the T13 and L1 hind paws. […] The reversal begins after 5-6 injections and continues to reverse behavior until day 33. The contralateral paw began to resolve at day 28 and the ipsilateral paw was still sensitive at day 33. […] Response thresholds on the von Frey test were recorded prior to and across a timecourse after avulsion surgery. Beginning on Day 12 post-surgery, rats (n=4/group) received once daily s.c. injections of either the glial activation inhibitor AV411/Ibudilast (Sigma; 5-mg/kg or 10-mg/kg) or equivolume vehicle (corn oil; 0.5-ml/kg). Daily drug treatment and intermittent behavioral testing continued through 33 days after surgery.
structure (smiles),measurement,setting,value
"CC(C)C(=O)c1c(C(C)C)nn2ccccc12 [AV411, 2-methyl-1-(2-propan-2-ylpyrazolo[1,5-a]pyridin-3-yl)propan-1-one]",effect on allodynia in the model,[1],decreases allodynia
same,difference between the 5 mg and 10 mg dose,"[2]; allodynia reversal, daily s.c.",not differences
same,reversal of behavior continues until,"[2]; days after surgery, daily s.c. treatment through day 33",33 days
same,effect on allodynia induced by avulsion (von Frey response thresholds),"[2]; once daily s.c. 5-mg/kg or 10-mg/kg from Day 12 post-surgery through day 33, vs corn oil vehicle",reversed allodynia; also recorded: reverses bilateral allodynia
same,effect of administering AV411 on hind paw mechanical allodynia as printed,"[2]; unilateral T13/L1 dorsal root avulsion, lasting upwards of 1.5 months",induces bilateral mechanical allodynia
